The NIST ThermoML archive (doi:10.1021/je600573w)

What was measured:
[1] = 101.33 kPa, Liquid, Vibrating tube method
[2] = molar heat capacity at constant pressure; conditions: 101.33 kPa, Liquid, Small sample (50 mg) DSC

Brc1cccc(Br)c1 [1,3-dibromobenzene]
Conditions | mass density [kg/m3] | molar heat capacity at constant pressure [J/K/mol]
[1], 288.15 K | 1964.14 | –
[1], 298.15 K | 1948.87 | –
[1], 308.15 K | 1933.61 | –
[1], 318.15 K | 1918.3 | –
[1], 328.15 K | 1903.13 | –
[1], 338.15 K | 1887.88 | –
[2], 283.15 K | – | 176.01
[2], 285.15 K | – | 176.4
[2], 287.15 K | – | 176.71
[2], 289.15 K | – | 177.04
[2], 291.15 K | – | 177.38
[2], 293.15 K | – | 177.72
[2], 295.15 K | – | 178.08
[2], 297.15 K | – | 178.44
[2], 299.15 K | – | 178.81
[2], 301.15 K | – | 179.19
[2], 303.15 K | – | 179.58
[2], 305.15 K | – | 179.97
[2], 307.15 K | – | 180.37
[2], 309.15 K | – | 180.78
[2], 311.15 K | – | 181.19
[2], 313.15 K | – | 181.6
[2], 315.15 K | – | 182.01
[2], 317.15 K | – | 182.43
[2], 319.15 K | – | 182.85
[2], 321.15 K | – | 183.28
[2], 323.15 K | – | 183.7
[2], 325.15 K | – | 184.13
[2], 327.15 K | – | 184.55
[2], 329.15 K | – | 184.98
[2], 331.15 K | – | 185.4
[2], 333.15 K | – | 185.83
[2], 335.15 K | – | 186.25
[2], 337.15 K | – | 186.67
[2], 339.15 K | – | 187.08
[2], 341.15 K | – | 187.49
[2], 343.15 K | – | 187.9
[2], 345.15 K | – | 188.3
[2], 347.15 K | – | 188.7
[2], 349.15 K | – | 189.09
[2], 351.15 K | – | 189.47
[2], 353.15 K | – | 189.85

Clc1cccc(Cl)c1 [1,3-dichlorobenzene]
Conditions | mass density [kg/m3] | molar heat capacity at constant pressure [J/K/mol]
[1], 288.15 K | 1294.08 | –
[1], 298.15 K | 1282.79 | –
[1], 308.15 K | 1271.49 | –
[1], 318.15 K | 1260.17 | –
[1], 328.15 K | 1248.82 | –
[1], 338.15 K | 1237.42 | –
[2], 283.15 K | – | 167.15
[2], 285.15 K | – | 167.54
[2], 287.15 K | – | 167.93
[2], 289.15 K | – | 168.32
[2], 291.15 K | – | 168.72
[2], 293.15 K | – | 169.13
[2], 295.15 K | – | 169.55
[2], 297.15 K | – | 169.97
[2], 299.15 K | – | 170.39
[2], 301.15 K | – | 170.82
[2], 303.15 K | – | 171.25
[2], 305.15 K | – | 171.69
[2], 307.15 K | – | 172.14
[2], 309.15 K | – | 172.58
[2], 311.15 K | – | 173.04
[2], 313.15 K | – | 173.49
[2], 315.15 K | – | 173.95
[2], 317.15 K | – | 174.41
[2], 319.15 K | – | 174.88
[2], 321.15 K | – | 175.35
[2], 323.15 K | – | 175.83
[2], 325.15 K | – | 176.3
[2], 327.15 K | – | 176.78
[2], 329.15 K | – | 177.26
[2], 331.15 K | – | 177.75
[2], 333.15 K | – | 178.24
[2], 335.15 K | – | 178.73
[2], 337.15 K | – | 179.22
[2], 339.15 K | – | 179.71
[2], 341.15 K | – | 180.2
[2], 343.15 K | – | 180.7
[2], 345.15 K | – | 181.2
[2], 347.15 K | – | 181.7
[2], 349.15 K | – | 182.2
[2], 351.15 K | – | 182.7
[2], 353.15 K | – | 183.2

Clc1ccc(Cl)cc1 [1,4-dichlorobenzene]
[2]
Conditions | molar heat capacity at constant pressure [J/K/mol]
327.15 K | 177.09
329.15 K | 177.53
331.15 K | 177.98
333.15 K | 178.43
335.15 K | 178.89
337.15 K | 179.35
339.15 K | 179.81
341.15 K | 180.28
343.15 K | 180.76
345.15 K | 181.24
347.15 K | 181.73
349.15 K | 182.22
351.15 K | 182.71
353.15 K | 183.21

Clc1ccccc1Br [1-bromo-2-chlorobenzene]
Conditions | mass density [kg/m3] | molar heat capacity at constant pressure [J/K/mol]
[1], 288.15 K | 1659.67 | –
[1], 298.15 K | 1646.32 | –
[1], 308.15 K | 1633.01 | –
[1], 318.15 K | 1619.69 | –
[1], 328.15 K | 1606.36 | –
[1], 338.15 K | 1593.03 | –
[2], 283.15 K | – | 172.25
[2], 285.15 K | – | 172.59
[2], 287.15 K | – | 172.94
[2], 289.15 K | – | 173.29
[2], 291.15 K | – | 173.65
[2], 293.15 K | – | 174.02
[2], 295.15 K | – | 174.39
[2], 297.15 K | – | 174.78
[2], 299.15 K | – | 175.17
[2], 301.15 K | – | 175.56
[2], 303.15 K | – | 175.96
[2], 305.15 K | – | 176.36
[2], 307.15 K | – | 176.77
[2], 309.15 K | – | 177.19
[2], 311.15 K | – | 177.61
[2], 313.15 K | – | 178.03
[2], 315.15 K | – | 178.45
[2], 317.15 K | – | 178.88
[2], 319.15 K | – | 179.31
[2], 321.15 K | – | 179.74
[2], 323.15 K | – | 180.17
[2], 325.15 K | – | 180.6
[2], 327.15 K | – | 181.03
[2], 329.15 K | – | 181.47
[2], 331.15 K | – | 181.9
[2], 333.15 K | – | 182.33
[2], 335.15 K | – | 182.77
[2], 337.15 K | – | 183.2
[2], 339.15 K | – | 183.62
[2], 341.15 K | – | 184.05
[2], 343.15 K | – | 184.47
[2], 345.15 K | – | 184.89
[2], 347.15 K | – | 185.31
[2], 349.15 K | – | 185.72
[2], 351.15 K | – | 186.13
[2], 353.15 K | – | 186.53
